A short description of data set [1]: Phototoxicity (glow lamp) and dark toxicity by hemolysis of bovine erythrocytes. To be noted: bovine, bovine erythrocytes, Glow Lamp; for hemolysis at 60 min, 0.1 µM: exposure 60 min; for hemolysis at 30 min, 0.5 µM: exposure 30 min. The data set is classed as cell-based. How it is done: (§1) Bovine erythrocytes were isolated from blood plasma stored with sodium citrate. 1 mL of bovine blood was treated at centrifuge (3,000 rpm) for 10 min to precipitate erythrocytes. The supernatant was decanted, 2 mL of physiological solution were added, treated and erythrocytes were precipitated with centrifuge. The washing procedure was repeated for 3 times and the precipitated erythrocytes were collected. […] Cells were dye-incubated for 45 minutes at 37° C. in the dark. Then the examined suspensions of cells (erythrocytes) were placed at a distance of 30-cm from a 250 W glow red-lamp equipped with a water-based heat filter and irradiated with occasional stirring. After irradiation, cells were stored at 4° C. for 15 hours. […] The hemolysis level (percentage of hemolyzed cells) was determined as the ratio of absorbances of the supernatant and a solution of 100% hemolysed cells. The 100% hemolysis was taken as the value obtained when the given number of erythrocytes were suspended in distilled water.

For the next data set, the system named is bovine erythrocytes. The description is as above. The conditions noted are these: Dark. The data set is classed as cell-based. The protocol: as §1
Data set [2] is described as follows: Singlet oxygen quantum yield, DPBF scavenger method in ethanol. The data set is classed as physicochemical. To be noted: measured in ethanol, 650 nm laser, ICG reference.
Protocol: The modified relative photochemical method of Spiller W. et al. (J. Porphyrins Phthalocyanines, 1998, V. 2, 145-158) utilizing 1,3-diphenylisobenzofuran (DPBF) as a chemical scavenger was used to determine the photosensitiser's singlet oxygen quantum yields (ΦΔ) in ethanol solutions.
Ethanolic solutions containing DPBF (10 μM) and sensitizers with absorbance (optical density) in a range between 0.09 and 0.10 at 650 nm (measured in a standard 1-cm quartz cell) were prepared. Samples were saturated with oxygen by bubbling. Next, 3 mL of the solution were placed in a 1-cm cell equipped with a stirring bar and a 10 mW, 650 nm diode laser was hermetically attached to the top of cuvette so as to avoid solvent evaporation and to provide a light beam direction from top to bottom of the cuvette. The solution in the cuvette was irradiated with the diode laser under continuous stirring for a certain time. DPBF consumption was determined by monitoring DPBF bleaching over irradiation time using absorption spectroscopy at 411 nm (extinction coefficient 22,000 M^−1 cm^−1). At least six absorption spectra were obtained for each solution at different irradiation times until the DPBF absorbance reduced at least to the 10% of the initial absorbance.
The decrease of DPBF absorbance at 411 nm versus irradiation time was plotted for each photosensitizer and the DPBF degradation rate constant (K) characterizing the reaction rate of singlet oxygen with DPBF in presence of a sensitizer was calculated.
A short description of data set [3]: Fluorescence emission spectra and quantum yield relative to HITC. The data set is classed as physicochemical. To be noted: for QY (fluor): given as fraction in synthesis example. How it is done:
Fluorescence spectra for the dyes were determined at RT on a Varian Cary Eclipse spectrofluorometer in a standard 1-cm quartz cell. The spectra were corrected. All concentrations of the fluorophores were chosen to be between 0.2 and 1.0 μM.
For the determination of the quantum yields (QY), the integrated relative intensities of the dyes or dye-protein conjugates, were measured against HITC as the reference. All absorbances at excitation wavelength (λexc) were in the range of 0.04-0.08 (when measured in a 1-cm cell).
The QY of each sample was independently measured 3-4 times and the average value was calculated.

The nature of data set [4]: Absorption spectra and extinction coefficients of dyes. The data set is classed as physicochemical. The protocol: Absorption spectra were measured at RT on a Perking Elmer Lambda 35 UV/Vis spectrophotometer. […] The stock solution was diluted (1:2000) and the absorbance was measured in a 5-cm standard quartz cell. All dye concentrations were in the range of 1.1 to 2.0×10^−7 M. The extinction coefficients were calculated according to Lambert-Beer's law.

Where “and” joins values, the source holds several entries; their conditions need not be identical. Equal values may be shown once.

`CN1\C(=C/C=C/C=C/C=C/C2=[N+](C)c3ccc(I)cc3C2(C)C)C(C)(C)c2cc(I)ccc21.[I-]` [I-25] returned a hemolysis at 60 min, 0.1 µM in data set [1] of 39%. This compound showed a hemolysis at 30 min, 0.5 µM in data set [1] of 83%. This compound also showed a Hemolysis in the data set on bovine erythrocytes (50 μM) of 51%. In data set [2], the “Singlet oxygen generation quantum yield ΦΔ” value is listed as 20%. For the same compound, the Emission max. came to 801 nm in data set [3] (Chloroform), 784 nm in data set [3] (Methanol) and 779 nm in data set [3] (Water). Besides, in data set [3] (Methanol), the Fluorescence quantum yield stood at 30%. Moreover, the Absorption max. in data set [4] (Chloroform) was found to be 771 nm; in data set [4] (Methanol) it was 753 nm; in data set [4] (Water), 750 nm.
In the case of `CC1(CCCCCC(=O)O)C(/C=C/C=C/C=C/C=C2\N(CCCS(=O)(=O)O)c3cc(I)c(I)c(I)c3C2(C)CCCCCC(=O)O)=[N+](CCCS(=O)(=O)[O-])c2cc(I)c(I)c(I)c21` (stereo not drawn) [I-86, 3-(3-(5-carboxypentyl)-2-7-[3-(5-carboxypentyl)-4,5,6-triiodo-3-methyl-1-(3-sulfopropyl)-2,3-dihydro-1H-2-indolyliden]-1,3,5-heptatrienyl-4,5,6-triiodo-3-methyl-3H-1-indoliumyl)-1-propanesulfonate], the hemolysis at 60 min, 0.1 µM in data set [1] was determined as 70%. Also, the hemolysis at 30 min, 0.5 µM in data set [1] was 74%. Further, the Hemolysis with bovine erythrocytes (10 μM) is recorded as 3%. Also, the “Singlet oxygen generation quantum yield ΦΔ” value in data set [2] is on record as 13%. The Emission max. in data set [3] (BSA conjugate) was determined as 796 nm; in data set [3] (Methanol) it was 795 nm; in data set [3] (Water), 786 nm. In addition, the Fluorescence quantum yield in data set [3] (BSA conjugate, subject to D/P) was 5-7%; in data set [3] (Methanol), 44%. Besides, the “QY (fluor)” value is reported as 0.44 in data set [3] (methanol) and 0.006 in data set [3] (water). Besides, the Absorption max. was 778 nm in data set [4] (BSA conjugate); 765 nm in data set [4] (Methanol); 721 nm and 760 nm in data set [4] (Water). Moreover, the “Extinction Coefficient” value was 210,000 M^−1cm^−1 in data set [4] (Methanol) and 100,000 M^−1cm^−1 in data set [4] (Water). In addition, the “Extinction coefficient ε at λmax (abs)” value in data set [4] (water, synthesis example, no unit) is reported as 210,000.
In data set [1], `CN1\C(=C/C=C/C=C/C=C/C2=[N+](C)c3cc(I)c(I)c(I)c3C2(C)C)C(C)(C)c2c1cc(I)c(I)c2I.[I-]` [I-76, 4,5,6-triiodo-1,3,3-trimethyl-2-[7-(4,5,6-triiodo-1,3,3-trimethyl-2,3-dihydro-1H-2-indolyliden)-1,3,5-heptatrienyl]-3H-indolium iodide] yielded a hemolysis at 60 min, 0.1 µM of 43% and a hemolysis at 30 min, 0.5 µM of 46%. The same compound displayed a Hemolysis in the data set with bovine erythrocytes (5 μM) of 2%. The Hemolysis with bovine erythrocytes (50 μM) is recorded as 12%. In addition, the “Singlet oxygen generation quantum yield ΦΔ” value in data set [2] was found to be 50%. For the same compound, in data set [3] (Methanol), the Emission max. is given as 785 nm and the Fluorescence quantum yield stood at 43%. Further, the Absorption max. in data set [4] (Methanol) is 754 nm and 755 nm.
In data set [1], `CN1\C(=C/C=C/C=C/C=C/C2=[N+](C)c3cc(I)cc(I)c3C2(C)C)C(C)(C)c2c(I)cc(I)cc21.[I-]` [I-71, 2-[7-(4,6-diiodo-1,3,3-trimethyl-2,3-dihydro-1H-2-indolyliden)-1,3,5-heptatrienyl]-4,6-diiodo-1,3,3-trimethyl-3H-indolium iodide] showed a hemolysis at 60 min, 0.1 µM of 21% and a hemolysis at 30 min, 0.5 µM of 75%. Also, the Hemolysis with bovine erythrocytes (5 μM) was found to be 2%. The Hemolysis in the data set with bovine erythrocytes (50 μM) was 30%. In data set [2], the “Singlet oxygen generation quantum yield ΦΔ” value stood at 19%. In data set [3] (Methanol), this compound came in with an Emission max. of 773 nm and a Fluorescence quantum yield of 46%. In data set [3] (methanol), the “QY (fluor)” value stood at 0.46. This compound also registered an Absorption max. in data set [4] (Methanol) of 745 nm.

Values taken from patent publication US9572881B2, “Halogenated compounds for photodynamic therapy” (Nanoquantum Sciences, Inc., priority 2012, dated 2017).
